The source made the active and inactive calls. No cut-off for these calls is given here.

The species entered for the first experiment is Danio rerio. The experiment is described as follows: Inhibition of AB zebrafish early embryo development assessed as delay in epiboly at 2.5 uM after 10 hrs post fertilization by inverted microscopic analysis. Format: functional, organism-based.
For the compound `CC[C@H](C)[C@@H]1NC(=O)C[C@H]2[C@@H]3OC(C)(C)O[C@H]3c3cc4c(cc3N2C/C=C\COC1=O)OCO4`, the inhibition entry was “Active”. In the case of `C=CCOC(=O)N1c2cc3c(cc2[C@@H]2OC(C)(C)O[C@H]2[C@@H]1CCN(Cc1ccc(F)cc1)C(=O)[C@H](CC(C)C)NC(=O)OCC1c2ccccc2-c2ccccc21)OCO3`, the inhibition entry is “Active”. The same measure, in the same setting: then `C=CCOC(=O)N1c2cc3c(cc2[C@@H]2OC(C)(C)O[C@H]2[C@@H]1CCO)OCO3`, with “Active”.

The species entered for another experiment is Danio rerio. The experiment can be described thus: Antiangiogenic activity in transgenic zebrafish embryo expressing EGFP at 2.5 uM after 36 hrs post fertilization by inverted microscopic analysis. It counts as functional, organism-based.
With `CC(C)C[C@@H]1NC(=O)C[C@H]2[C@@H]3OC(C)(C)O[C@H]3c3cc4c(cc3N2C/C=C\COC1=O)OCO4`, the inhibition result is “Active”. On the same count and under the same terms, the value for `C=CCOC[C@H](Cc1ccccc1)NC(=O)C[C@@H]1Nc2cc3c(cc2[C@@H]2OC(C)(C)O[C@@H]12)OCO3` was “Active”. On the same count and under the same terms, then `C=CCOC(=O)N1c2cc3c(cc2[C@@H]2OC(C)(C)O[C@H]2[C@@H]1CCO)OCO3`, with “Active”.

The values are drawn from ChEMBL document CHEMBL2407082, “Tetrahydroquinoline-derived macrocyclic toolbox: the discovery of antiangiogenesis agents in zebrafish assay” (ACS Med Chem Lett, 2013).
